Assay type in all cases: binding
Test [1] addresses T1, RNF146 WWE domain (Homo sapiens, UniProt Q9NTX7).
T1 construct: RNF146 (Uniprot ID: Q9NTX7, residues 100-184); His6-TEV site (N, cleaved yes); made in house; host or cells: E. coli BL21 (DE3) pRARE2
T1 sequence (Q9NTX7 100-184): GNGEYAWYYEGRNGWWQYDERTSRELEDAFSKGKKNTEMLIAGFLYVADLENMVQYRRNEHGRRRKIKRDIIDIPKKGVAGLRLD
The test can be described thus: 15N-HSQC NMR Kd titration, RNF146 WWE domain. Conditions: 15N-HSQC-NMR titration, mean of selected cross peaks ± SD.

In test [2] the target is T2, TRIP12 WWE domain (isoform 2) (Homo sapiens, UniProt Q14669).
T2 construct: TRIP12-2 (Uniprot ID: Q14669, residues 759–847); His6-TEV site (N, cleaved yes); made in house; host or cells: E. coli BL21 (DE3) pRARE2
The test can be described thus: 15N-HSQC NMR Kd titration, TRIP12 WWE domain. Conditions: 15N-HSQC-NMR titration, mean of selected cross peaks ± SD. From the text: (§1) Protein-observed NMR using isotopically labeled proteins has emerged as one of the most sensitive and widely employed methods for fragment-based screening. Our objective was to generate ^15N-labeled proteins of WWE domain family members, thereby enabling ^15N-HSQC NMR studies. This approach provides a protein-based fragment screening assay to identify and orthogonally validate binders for the WWE domain family proteins. We conducted NMR-based Kd determination assays for HUWE1, DTX1, RNF146, TRIP12, and DTX2 (Fig. 2c–f, Fig. S3). The small size of the WWE domain constructs (10–20 kDa) yielded NMR spectra with well-resolved individual peaks when analyzed on a 600 MHz spectrometer. This facilitated the determination of Kd values for ligands in the fast-exchange regime by monitoring chemical shift perturbations in the ligand titration. […] The adenosine-based ligands were titrated in the range of 62.5 µM to 2 mM for each WWE domain protein. However, due to resource intensive preparation, iso-ADPr was only titrated up to 500 µM. We then plotted the Δδ chemical shifts and ligand concentrations to determine a saturation curve. For each Kd determination, the chemical shifts of at least two separate peaks were analyzed and reported as the mean with standard deviation (Table 1, Figs. S4–7).
(§2) Titration curves were calculated as previously described.

Test [3] addresses T3, HUWE1 WWE domain (Homo sapiens, UniProt Q7Z6Z7).
T3 construct: HUWE1 (Uniprot ID: Q7Z6Z7, residues 1611–1700); His6-TEV site (N, cleaved yes); made in house; host or cells: E. coli BL21 (DE3) pRARE2
T3 sequence (Q7Z6Z7 1611-1700): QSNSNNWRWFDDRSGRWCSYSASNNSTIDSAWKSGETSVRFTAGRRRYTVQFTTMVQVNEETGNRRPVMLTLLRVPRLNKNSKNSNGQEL
The test can be described thus: 15N-HSQC NMR Kd titration, HUWE1 WWE domain. Conditions: 15N-HSQC-NMR titration, mean of selected cross peaks ± SD.
Description: as §1, §2
Compound hit confirmation was carried out in single compound samples using the same conditions and parameters as for compound mixtures.

Test [4] deals with T4, DTX1 WWE domain (Homo sapiens, UniProt Q86Y01).
T4 construct: DTX1 (Uniprot ID: Q86Y01, residues 21–184); His6-TEV site (N, cleaved yes); made in house; host or cells: E. coli BL21 (DE3) pRARE2
T4 sequence (Q86Y01 21-184): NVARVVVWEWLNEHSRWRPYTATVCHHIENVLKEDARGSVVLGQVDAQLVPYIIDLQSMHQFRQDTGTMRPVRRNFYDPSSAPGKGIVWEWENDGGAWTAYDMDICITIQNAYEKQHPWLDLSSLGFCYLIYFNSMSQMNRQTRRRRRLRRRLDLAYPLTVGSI
Put plainly: 15N-HSQC NMR Kd titration, DTX1 WWE domains. To be noted: 15N-HSQC-NMR titration, mean of selected cross peaks ± SD.
Description: as §1, §2

In test [5] the target is T5, DTX2 WWE domain (Homo sapiens, UniProt Q86UW9).
T5 construct: DTX2 (Uniprot ID: Q86UW9, residues 3–189); His6-TEV site (N, cleaved yes); made in house; host or cells: E. coli BL21 (DE3) pRARE2
T5 sequence (Q86UW9 3-189): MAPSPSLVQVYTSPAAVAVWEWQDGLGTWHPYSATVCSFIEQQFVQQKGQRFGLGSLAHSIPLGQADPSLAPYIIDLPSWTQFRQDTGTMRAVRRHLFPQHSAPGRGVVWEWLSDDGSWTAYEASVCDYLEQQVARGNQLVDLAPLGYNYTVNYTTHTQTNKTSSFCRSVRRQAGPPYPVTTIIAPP
The test can be described thus: 15N-HSQC NMR Kd titration, DTX2 WWE domains. Conditions: 15N-HSQC-NMR titration, mean of selected cross peaks ± SD.
Description: as §1, §2

Test [6] deals with T3, HUWE1 WWE domain. The test can be described thus: 19F NMR displacement assay with 2F-ATP (1) reporter, HUWE1. To be noted: 100 µM reporter, 0.5 µM protein, competitor up to 1 mM.
Test [7] addresses T5, DTX2 WWE domain. Put plainly: 19F NMR displacement assay with 2F-ATP (1) reporter, DTX2. Conditions: 100 µM reporter, 0.5 µM protein, competitor up to 1 mM.

Values joined by “and” are separate entries in the source; they are usually repeats but may differ in a detail not shown here. Identical values can stand only once. “Also recorded” adds a separate entry of the source. Bounds are passed on as bounds.

T2 sequence (Q14669 with tags, fused parts or gaps): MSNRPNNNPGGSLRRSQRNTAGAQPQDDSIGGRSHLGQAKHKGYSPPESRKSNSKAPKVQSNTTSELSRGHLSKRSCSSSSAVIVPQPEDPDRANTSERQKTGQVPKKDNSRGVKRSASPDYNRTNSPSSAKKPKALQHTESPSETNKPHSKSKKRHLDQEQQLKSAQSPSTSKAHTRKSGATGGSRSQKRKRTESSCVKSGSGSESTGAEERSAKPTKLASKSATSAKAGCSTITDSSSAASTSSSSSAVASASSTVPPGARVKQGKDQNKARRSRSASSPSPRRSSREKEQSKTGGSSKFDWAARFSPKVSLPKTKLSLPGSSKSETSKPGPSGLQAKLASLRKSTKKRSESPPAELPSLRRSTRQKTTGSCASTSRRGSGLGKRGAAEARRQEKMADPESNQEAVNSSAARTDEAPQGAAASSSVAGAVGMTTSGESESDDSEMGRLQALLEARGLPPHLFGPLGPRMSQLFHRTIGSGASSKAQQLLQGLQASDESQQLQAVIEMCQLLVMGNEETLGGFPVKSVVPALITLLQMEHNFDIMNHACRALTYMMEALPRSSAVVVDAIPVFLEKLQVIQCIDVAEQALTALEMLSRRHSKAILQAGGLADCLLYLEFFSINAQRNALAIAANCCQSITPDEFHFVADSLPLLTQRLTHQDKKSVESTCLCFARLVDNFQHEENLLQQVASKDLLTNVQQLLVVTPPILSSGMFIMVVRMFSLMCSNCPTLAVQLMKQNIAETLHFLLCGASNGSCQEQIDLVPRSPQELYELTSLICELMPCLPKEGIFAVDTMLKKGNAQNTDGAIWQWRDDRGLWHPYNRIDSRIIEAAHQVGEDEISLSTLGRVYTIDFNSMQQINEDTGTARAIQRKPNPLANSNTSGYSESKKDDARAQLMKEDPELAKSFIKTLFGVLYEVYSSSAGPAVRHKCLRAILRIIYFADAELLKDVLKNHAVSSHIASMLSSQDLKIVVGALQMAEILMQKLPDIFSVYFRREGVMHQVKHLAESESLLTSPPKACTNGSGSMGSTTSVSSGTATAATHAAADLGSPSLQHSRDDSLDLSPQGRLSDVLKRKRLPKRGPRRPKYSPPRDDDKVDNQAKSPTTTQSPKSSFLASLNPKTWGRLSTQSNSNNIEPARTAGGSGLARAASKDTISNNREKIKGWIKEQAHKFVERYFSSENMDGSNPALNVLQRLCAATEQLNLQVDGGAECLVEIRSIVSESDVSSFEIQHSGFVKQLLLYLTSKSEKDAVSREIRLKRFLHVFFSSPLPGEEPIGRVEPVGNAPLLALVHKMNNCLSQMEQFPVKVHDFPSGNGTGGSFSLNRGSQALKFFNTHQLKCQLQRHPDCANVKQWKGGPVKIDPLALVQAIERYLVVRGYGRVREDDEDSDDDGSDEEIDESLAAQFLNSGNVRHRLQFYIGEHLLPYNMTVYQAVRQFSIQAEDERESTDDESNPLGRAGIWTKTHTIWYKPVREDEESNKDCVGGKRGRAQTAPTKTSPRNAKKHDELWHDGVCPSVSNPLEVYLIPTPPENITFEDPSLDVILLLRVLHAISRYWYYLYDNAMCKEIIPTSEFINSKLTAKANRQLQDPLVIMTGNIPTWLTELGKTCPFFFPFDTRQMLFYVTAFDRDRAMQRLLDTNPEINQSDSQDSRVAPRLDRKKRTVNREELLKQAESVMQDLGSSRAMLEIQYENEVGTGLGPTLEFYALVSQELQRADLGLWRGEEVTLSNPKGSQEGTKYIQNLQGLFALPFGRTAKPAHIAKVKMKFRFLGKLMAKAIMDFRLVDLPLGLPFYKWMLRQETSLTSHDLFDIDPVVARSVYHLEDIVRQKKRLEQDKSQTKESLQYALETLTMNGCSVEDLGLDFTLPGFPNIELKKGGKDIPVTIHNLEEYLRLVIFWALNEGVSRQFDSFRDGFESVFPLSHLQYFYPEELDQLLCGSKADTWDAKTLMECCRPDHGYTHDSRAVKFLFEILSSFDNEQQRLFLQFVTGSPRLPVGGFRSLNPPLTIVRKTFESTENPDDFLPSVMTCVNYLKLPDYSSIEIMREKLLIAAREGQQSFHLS

The Kd is the concentration at which binding is half-saturated. A higher Kd goes with a looser complex. For the compound `Nc1nc(F)nc2c1ncn2[C@@H]1O[C@H](COP(=O)(O)OP(=O)(O)OP(=O)(O)O)[C@@H](O)[C@H]1O` [2F-ATP 1], the Kd in test [1] is 49 ± 18 µM; in test [2], 127 ± 9 µM; in test [3] it was 30 µM and 27 µM; in test [4] it was 329 ± 115 µM; in test [5] it was greater than 2000 µM.
`O=C(O)CN1C(=O)c2ccc(C(=O)O)cc2C1=O` [compound (4)] returned a Kd in test [3] of 202 µM. In test [6], the “displacement of 19F reporter 2F-ATP (1)” value is “clear dose-dependent displacement; also recorded: showed displacement”.
Take `Nc1ncnc2c1ncn2[C@@H]1O[C@H](COP(=O)(O)OP(=O)(O)OP(=O)(O)O)[C@@H](O)[C@H]1F` [2’F-ATP 2]: the Kd was 114 ± 31 µM in test [1]; 125 ± 20 µM in test [2]; 15 ± 2 µM in test [3]; 550 ± 111 µM in test [4]; 455 ± 17 µM in test [5].
For `Nc1ncnc2c1ncn2[C@@H]1O[C@H](COP(=O)(O)OP(=O)(O)OP(=O)(O)O)[C@@H](O)[C@H]1O` [ATP], the Kd turned out to be 316 ± 22 µM in test [2], 59 ± 5 µM in test [3], 659 ± 294 µM in test [4] and 802 ± 84 µM in test [5]. Further, the “displacement of 19F reporter 2F-ATP (1)” value in test [6] is “increasing signal intensity”; in test [7], “too weak for displacement”.
Compound `O=C(O)CN1C(=O)c2ccccc2C1=O` [compound (3), N-(Carboxymethyl)-phthalimide] displayed a Kd in test [3] of 1760 µM. The “displacement of 19F reporter 2F-ATP (1)” value in test [6] is recorded as “no displacement”.

Values taken from article PMC11269756, “A ligand discovery toolbox for the WWE domain family of human E3 ligases” (Communications Biology, 2024).
